CC(=O)c1c(C)c([N+](=O)[O-])c(C(C)(C)C)c([N+](=O)[O-])c1C
solubility (mole fraction)
Settings	278.15 K	283.15 K	288.15 K	293.15 K	298.15 K	303.15 K	308.15 K	313.15 K	318.15 K
in DMF	0.0747	0.0867	0.0998	0.113	0.128	0.147	0.167	0.187	0.211
in ethanol	0.00197	0.00243	0.003	0.00367	0.00444	0.00531	0.00633	0.00753	0.00892
in isopropanol	0.00161	0.00204	0.00258	0.00323	0.00408	0.00506	0.0063	0.00771	0.00933
in methanol	0.0013	0.00156	0.00187	0.00224	0.00267	0.00318	0.00375	0.00442	0.00515

From BigSolDB 2.1
